Experiment [1] has as its target T1, human recombinant serotonin (5-Hydroxytryptamine) 5-HT5A receptor (Homo sapiens, UniProt P47898).
T1 construct: expressed in transfected cells; host or cells: CHO-K1
As to the kind of experiment: Serotonin 5-HT5A radioligand binding ([3H]LSD). The settings on record: compound at 0.1 μM; read-out: Percentage inhibition of ligand binding, Serotonin (0.1 μM) 5-HT5A. The method, then:
To evaluate in radioligand binding assays the activity of compounds of the invention, human recombinant serotonin (5-Hydroxytryptamine) 5-HT5A receptor expressed in Chinese hamster ovary (CHO) K1 cells (Rees, S. et al, FEBS Lett. 355:242, 1994) in a modified Tris-HCl buffer (50 mM Tris-HCl, pH 7.4, 10 mM MgCl2, 0.5 mM EDTA) was used. Compounds of the invention were incubated with 1.7 nM [^3H]Lysergic acid diethylamide (LSD) for 60 min at 37° C. Non-specific binding was estimated in the presence of 100 μM Serotonin (5-HT). Receptor proteins were filtered and washed, the filters were counted to determine [^3H]LSD specifically bound. Compounds were screened at 1 μM or lower, using 1% DMSO as vehicle. Biochemical assay results are presented as the percent inhibition of specific binding in Table 4.

Experiment [2] has as its target T2, human recombinant dopamine D2L receptor (Homo sapiens, UniProt P14416).
T2 construct: expressed in transfected cells; host or cells: CHO
In words: Dopamine D2L radioligand binding ([3H]Spiperone). The note with it: compound at 1 μM; read-out: Percentage inhibition of ligand binding, Dopamine (1 μM) D2L. How it is done: To evaluate in radioligand binding assays the activity of compounds of the invention, human recombinant dopamine D2L receptor expressed in Chinese hamster ovary (CHO) cells (Grandy, D. et al, Proc. Natl. Acad. Sci. USA. 86:9762, 1989; Hayes, G. et al, Mol. Endocrinol. 6:920, 1992) in a modified Tris-HCl buffer (50 mM Tris-HCl, pH 7.4, 1.4 mM Ascorbic Acid, 0.001% BSA, 150 mM NaCl) was used. Compounds of the invention were incubated with 0.16 nM [^3H]Spiperonefor 120 min at 25° C. Non-specific binding was estimated in the presence of 10 μM Haloperidol. Receptor proteins were filtered and washed, the filters were then counted to determine [^3H]Spiperone specifically bound. Compounds were screened at 1 μM or lower, using 1% DMSO as vehicle. Biochemical assay results are presented as the percent inhibition of specific binding in Table 3.

Experiment [3] has as its target T3, human recombinant serotonin (5-Hydroxytryptamine) 5-HT2C receptor (Homo sapiens, UniProt P28335).
T3 construct: expressed in transfected cells; host or cells: CHO-K1
T3 sequence (P28335 33-458): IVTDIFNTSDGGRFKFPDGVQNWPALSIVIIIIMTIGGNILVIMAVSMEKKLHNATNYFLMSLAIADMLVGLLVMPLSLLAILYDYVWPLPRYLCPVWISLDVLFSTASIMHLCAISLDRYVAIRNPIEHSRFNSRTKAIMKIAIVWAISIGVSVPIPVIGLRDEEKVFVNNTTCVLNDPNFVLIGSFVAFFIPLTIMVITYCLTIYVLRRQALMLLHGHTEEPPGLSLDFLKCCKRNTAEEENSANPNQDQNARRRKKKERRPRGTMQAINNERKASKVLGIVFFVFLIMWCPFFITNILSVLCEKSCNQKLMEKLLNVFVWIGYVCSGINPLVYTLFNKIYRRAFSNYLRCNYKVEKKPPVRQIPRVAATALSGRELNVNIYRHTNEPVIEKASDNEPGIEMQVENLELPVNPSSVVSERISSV
In words: Serotonin 5-HT2C radioligand binding ([3H]Mesulergine). The note with it: compound at 0.1 μM; read-out: Percentage inhibition of ligand binding, Serotonin (0.1 μM) 5-HT2C. The method, then: To evaluate in radioligand binding assays the activity of compounds of the invention, human recombinant serotonin (5-Hydroxytryptamine) 5-HT2C receptor expressed in Chinese hamster ovary (CHO) K1 cells (Wolf, W. et al, J. Neurochem. 69:1449, 1997) in a modified Tris-HCl buffer (50 mM Tris-HCl, pH 7.4, 0.1% Ascorbic Acid, 10 μM Pargyline) was used. Compounds of the invention were incubated with 1 nM [^3H]Mesulergine for 60 min at 25° C. Non-specific binding was estimated in the presence of 1 μM Mianserin. Receptor proteins were filtered and washed, the filters were then counted to determine [^3H]Mesulergine specifically bound. Compounds were screened at 1 μM or lower, using 1% DMSO as vehicle. Biochemical assay results are presented as the percent inhibition of specific binding in Table 4.

Experiment [4] concerns the target T4, human recombinant adrenergic α2C receptor (Homo sapiens, UniProt P18825).
T4 construct: expressed in transfected cells; host or cells: insect Sf9 cells
T4 sequence (P18825 1-462): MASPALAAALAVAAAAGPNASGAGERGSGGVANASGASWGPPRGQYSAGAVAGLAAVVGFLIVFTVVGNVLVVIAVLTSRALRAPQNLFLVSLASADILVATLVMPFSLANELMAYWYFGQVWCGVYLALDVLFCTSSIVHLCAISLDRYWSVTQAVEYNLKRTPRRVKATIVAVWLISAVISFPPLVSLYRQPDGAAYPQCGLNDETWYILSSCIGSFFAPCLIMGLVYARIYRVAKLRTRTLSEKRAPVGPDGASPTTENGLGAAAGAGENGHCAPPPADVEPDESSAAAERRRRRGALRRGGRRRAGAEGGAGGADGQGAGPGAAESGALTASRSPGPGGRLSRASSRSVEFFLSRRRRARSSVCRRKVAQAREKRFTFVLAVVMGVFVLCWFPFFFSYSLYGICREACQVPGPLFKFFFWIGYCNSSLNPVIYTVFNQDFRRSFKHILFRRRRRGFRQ
In words: Adrenergic α2C radioligand binding ([3H]MK-912). The settings on record: compound at 0.1 μM; read-out: Percentage inhibition of ligand binding, Adrenergic (0.1 μM) α2C. The method, then:
To evaluate in radioligand binding assays the activity of compounds of the invention, human recombinant adrenergic α2C receptor expressed in insect Sf9 cells (Uhlen, S. et al, J. Pharmacol. Exp. Ther. 271:1558, 1994) in a modified Tris-HCl buffer (50 mM Tris-HCl, pH 7.4, 12.5 mM MgCl2, 2 mM EDTA) was used. Compounds of the invention were incubated with 1 nM [^3H]MK-912 for 60 min at 25° C. Non-specific binding was estimated in the presence of 10 μM WB-4101. Receptor proteins were filtered and washed, the filters were then counted to determine [^3H]MK-912 specifically bound. Compounds were screened at 1 μM or lower, using 1% DMSO as vehicle. Biochemical assay results are presented as the percent inhibition of specific binding in Table 3.

T1 sequence (P47898 whole entry): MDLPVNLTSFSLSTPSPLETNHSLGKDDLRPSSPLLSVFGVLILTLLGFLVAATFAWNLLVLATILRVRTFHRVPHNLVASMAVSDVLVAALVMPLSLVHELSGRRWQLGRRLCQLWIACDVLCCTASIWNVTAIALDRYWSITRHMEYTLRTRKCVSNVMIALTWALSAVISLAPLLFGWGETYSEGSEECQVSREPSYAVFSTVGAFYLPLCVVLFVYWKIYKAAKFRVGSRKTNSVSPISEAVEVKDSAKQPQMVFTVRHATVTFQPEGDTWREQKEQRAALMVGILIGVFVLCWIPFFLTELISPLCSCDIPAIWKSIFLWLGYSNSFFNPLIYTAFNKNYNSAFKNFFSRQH
T2 sequence (P14416 whole entry): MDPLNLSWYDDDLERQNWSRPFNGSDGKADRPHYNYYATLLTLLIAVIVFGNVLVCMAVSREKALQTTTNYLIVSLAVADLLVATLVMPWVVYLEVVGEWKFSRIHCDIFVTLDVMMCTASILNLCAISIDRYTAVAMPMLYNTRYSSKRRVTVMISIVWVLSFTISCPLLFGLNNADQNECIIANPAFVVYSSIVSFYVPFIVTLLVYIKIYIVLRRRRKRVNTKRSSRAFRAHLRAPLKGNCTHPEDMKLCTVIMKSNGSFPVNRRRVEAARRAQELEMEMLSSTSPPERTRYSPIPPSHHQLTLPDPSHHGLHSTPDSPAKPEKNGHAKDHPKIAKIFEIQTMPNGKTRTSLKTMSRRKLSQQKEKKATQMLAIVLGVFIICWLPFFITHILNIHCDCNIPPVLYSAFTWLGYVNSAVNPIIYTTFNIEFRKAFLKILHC

As to `Cc1cc(-c2ccc(F)cc2)c2c(c1)c1c(n2C)CCN(C)C1` [Compound 7], the results for the inhibition at 0.1 µM in experiment [1], in experiment [3] and in experiment [4] were -4%, 36% and 8%, respectively. Besides, in experiment [2], the inhibition at 1 µM came to 5%.

As for `Cc1cc(C#Cc2cccs2)c2[nH]c3c(c2c1)CN(C)CC3` [Compound 8], the figures for the inhibition at 0.1 µM in experiment [1], in experiment [3] and in experiment [4] were -14%, 4% and 7%, respectively. The inhibition at 1 µM in experiment [2] is -1%.

On to `Cc1cc(-c2ccncc2)c2c(c1)c1c(n2C)CCN(C)C1` [Compound 9], for which the results for the inhibition at 0.1 µM in experiment [1], in experiment [3] and in experiment [4] were 6%, 9% and 1%, respectively. Also, the inhibition at 1 µM in experiment [2] came to 7%.

Take `C#Cc1cc(C)cc2c3c(n(C)c12)CCN(C)C3` [Compound 10, 6-Ethynyl-2,3,4,5-tetrahydro-2,5,8-trimethyl-1H-pyrido[4,3-b]indole]: the inhibition at 0.1 µM in experiment [1] turned out to be 1%; in experiment [3], 55%; in experiment [4], 36%. Further, in experiment [2], the inhibition at 1 µM was determined as 70%.

For `C/C(=C\c1cc(C)cc2c3c(n(C)c12)CCN(C)C3)c1ccncc1` [Compound 11], the inhibition at 0.1 µM is -19% in experiment [1], -11% in experiment [3] and 12% in experiment [4]. Further, the inhibition at 1 µM in experiment [2] was 28%.

Turning to `Cc1cc(C#Cc2ccc(C)nc2)c2c(c1)c1c(n2C)CCN(C)C1` [Compound 12, 2,3,4,5-tetrahydro-2,5,8-trimethyl-6-(2-(6-methylpyridin-3-yl)ethynyl)-1H-pyrido[4,3-b]indole], the inhibition at 0.1 µM in experiment [1] was -21%; in experiment [3], 3%; in experiment [4] it was 3%. Also, the inhibition at 1 µM in experiment [2] was 14%.

Consider `Cc1cc(CCc2ccc(C)nc2)c2c(c1)c1c(n2C)CCN(C)C1` [Compound 13], for which the inhibition at 0.1 µM in experiment [1] is 15%; in experiment [3], -11%; in experiment [4], 2%. Besides, the inhibition at 1 µM in experiment [2] is 15%.

In the case of `Cc1cc(/C=C/c2ccc(C)nc2)c2c(c1)c1c(n2C)CCN(C)C1` [Compound 14], the inhibition at 0.1 µM in experiment [1] is -7%; in experiment [3], 1%; in experiment [4] it was 1%. Also, the inhibition at 1 µM in experiment [2] turned out to be 14%.

For the compound `C/C(=C\c1cc(C)cc2c3c(n(C)c12)CCN(C)C3)c1ccc(C)nc1` [Compound 15], the inhibition at 0.1 µM in experiment [1] was 11%; in experiment [3], 28%; in experiment [4] it was -14%. The inhibition at 1 µM in experiment [2] is 3%.

In the case of `Cc1cc(C#Cc2nccs2)c2[nH]c3c(c2c1)CN(C)CC3` [Compound 16], the inhibition at 0.1 µM is -2% in experiment [1], 20% in experiment [3] and 5% in experiment [4]. In addition, the inhibition at 1 µM in experiment [2] is -1%.

With `Cc1cc(C#Cc2ccncc2)c2c(c1)c1c(n2C)CCN(C)C1` [Compound 17], the inhibition at 0.1 µM in experiment [1] turned out to be 15%; in experiment [3], 19%; in experiment [4] it was 3%. Further, the inhibition at 1 µM in experiment [2] is 1%.

On to `Cc1ccc(C#Cc2cc(Cl)cc3c4c(n(C)c23)CCN(C)C4)cn1` [Compound 18], for which the inhibition at 0.1 µM in experiment [1] amounted to 17%; in experiment [3], 27%; in experiment [4], 0%. In addition, the inhibition at 1 µM in experiment [2] was 7%.

Usually inhibition stands for the relative decrease from the control value, in per cent.

Values taken from patent US9034865B2, “Pyrido [4,3-B] indole and pyrido [3,4-B] indole derivatives and methods of use” (Medivation Technologies, Inc., priority 2010, dated 2015).
